Data taken from patent US11466054B2, “Inhibitors of metastasis” (BIOMARCK PHARMACEUTICALS LTD., priority 2013, dated 2022).
Where no end group is shown, it is not given here.

Legend:
[1] = tested on: Human adenocarcinoma cells (PC-9); assay: Orthotopic lung cancer implantation model in SCID mice, i.p. versus inhalation (Example 4); type: in vivo
Method: In this study, inhibition of lung cancer metastasis by peptide BIO-11006 in an orthotopic lung cancer implantation model in SCID mice assessed. Human adenocarcinoma cells (PC-9) (1-2×10^5) were suspended in 40 μL of PBS, pH 7.4 containing 0.5 mg/mL of Matrigel™ (BD Bioscience) and injected into the left lung of SCID mice (n=3) using a syringe with 29 gauge needle. BIO-11006 (100 μM, in PBS) was administered either (a) by i.p. injection (50 μL) once daily for 22 days starting at 3 days post cancer cell inoculation or (b) by aerosol inhalation using a Nebulizer Delivery System (Aeroneb Lab) over 30 min once daily for 22 days starting at 3 days post cancer cell inoculation. […] Both i.p. and aerosol administration of BIO-11006 reduced cancer cell metastasis by more than 50% in the right lung and heart, and 100% in the diaphragm. Thus, both routes of administration had significant inhibitory effects on cancer cell metastasis.

[2] = tested on: A549 cells; assay: Anti-metastatic efficacy in SCID mice given A549 cells via the tail vein; type: in vivo; conditions: Day 53; for No. of metastatic nodules in lungs Mean ± SEM: aerosol 100 μM every other day for 7 weeks
Method: Female NOD.CB17-Prkdc^scid/NCrHsd, Mus musculus mice (Harlan, The Netherlands), housed in individually ventilated cages, were randomized into six groups of eight mice each. A549 cells (2.5×10^6) were injected into the mice via the tail vein. The control group received aerosolized vehicle PBS; while the groups 2 and 3 received the aerosolized test compound BIO-11006 either from −1 day before the cancer cells injection (group 2) or from +3 days after the cancer cell injection (group 3) on every other day for 7 weeks via nebulizer (Aeroneb Lab). Groups 4 and 5 received the aerosolized test compound MANS peptide either from −1 day before the cancer cell line injection (group 4) or from +3 days after the cell line injection (group 5) on every other day for 7 weeks via a nebulizer (Aeroneb Lab). For aerosol delivery, solution of each test compound (100 μM) was prepared in PBS, pH 7.0. For each treatment, 5 mL of test compound solution was aerosolized over 30 minutes into a chamber containing four mice at a time. The mice were monitored for body weight every other day for 7 weeks.
One group of mice (n=7) served as normal control. These were untreated naïve mice used to monitor the health status of mice during the study period. All animals from all groups were sacrificed on Day 53. FIG. 15 compares number of metastatic nodules in lungs after respective administration of BIO-11006 and MANS peptide on Day 53 following A549 cell injection. […] There were few focal tumor nodules in ⅞ of mice treated with BIO-11006 peptide starting at either Day −1 or Day +3 relative to A549 cell injection.

[3] = aerosol inhalation 100 μM over 30 min once daily for 22 days from 3 days post inoculation
[4] = i.p. injection 50 μL of 100 μM once daily for 22 days from 3 days post inoculation

In the case of “N-acetyl-GAQFSKTAAK (Ac-GAQFSKTAAK; listed as Homo sapiens) [BIO-11006]”, the “reduction of cancer cell metastasis in the diaphragm” value [1, 3] is reported as 100%, the “reduction of cancer cell metastasis in the right lung and heart” value [1, 3] is reported as “more than 50%” and the “reduction of cancer cell metastasis in the diaphragm” value [1, 4] is reported as 100%. The “reduction of cancer cell metastasis in the right lung and heart” value [1, 4] was “more than 50%”, the “animals with few focal tumor nodules” value ([2]; +3 Day treatment group) was “Few focal tumor nodules in 7/8” and the distant metastasis ([2]; +3 Day treatment group) was “No distant metastasis”. For the same substance, the “No. of metastatic nodules in lungs Mean ± SEM” value ([2]; +3 Day treatment group) was 21 ± 6, the “animals with few focal tumor nodules” value ([2]; −1 Day treatment group) was “Few focal tumor nodules in 7/8” and the distant metastasis ([2]; −1 Day treatment group) was “No distant metastasis”. For the same substance, the “No. of metastatic nodules in lungs Mean ± SEM” value ([2]; −1 Day treatment group) was 34 ± 14.
